Experimental data as given in patent US20100240682A1, “PHOPHYLACTIC OR THERAPEUTIC AGENT FOR INFLAMATORY DISEASE COMPRISING THYMIDINE PHOSPHORYLASE INHIBITOR AS ACTIVE INGREDIENT” (TAIHO PHARMACEUTICAL CO., LTD., priority 2007, published 2010).

Experiments:
[1] = test system: IL-6 production in human monocytes cell line U937; experiment: IL-6 production by PMA/thymidine-stimulated U937 cells; format: cell-based; settings: U937 after 10 ng/mL PMA and 10 μmol/L thymidine; 48 h after drug addition; vs control group
Protocol: Human monocytes cell line U937 were cultured using a 10% FBS RPMI 1640 medium (SIGMA-ALDRICH) at 37° C. under 5% CO2. Using a 24-well plate, U937 cells (1×10^5) were cultured for 24 hours in a medium containing 10 ng/mL phorbol-12-myristate-13-acetate (inflammatory substance, hereinafter abbreviated to as PMA) and 10 μmol/L thymidine in order for induction of inflammatory reaction. Twenty-four hours later, the medium was changed to fresh medium. To the drug administration group, TUPI or TPI was added. Forty-eight hours after the addition, the IL-6 level of each culture supernatant was determined by means of BioPlex (Bio-Rad Laboratories, Inc.).

[2] = test system: rats having hydrochloric-acid-induced cystitis; experiment: Hydrochloric-acid-induced cystitis model rat, bladder functions by cystometry; format: in vivo; settings: TPI 5, 50 or 100 mg/kg orally once a day for seven days; vs control group
Protocol: To rats having hydrochloric-acid-induced cystitis serving as a cystitis model, 5-chloro-6-(2-iminopyrrolidin-1-yl)methyl-2,4(1H,3H)-pyrimidinedione hydrochloride (hereinafter abbreviated as “TPI”) (5, 50, or 100 mg/kg) was orally administered continuously for seven days, and the effect of TPI on bladder functions was evaluated. Specifically, 10-week-old SD rats were divided into groups (n=6) on the basis of body weight. To each of the rats of the control group and TPI administration groups, 0.4N HCl (0.2 mL) was intravesically administered once to the bladder under pentobarbital anesthesia (50 mg/kg, i.p.), to thereby induce a cystitis model. To a Sham group, saline (0.2 mL) was intravesically administered. From the day following the induction of cystitis model, distilled water for injection (5 mL/kg) was administered to the Sham and control groups, while distilled water for injection (5 mL/kg) containing TPI (5, 50, or 100 mg/kg) was administered to the TPI administration groups. In each case, the liquid was administered by forced oral administration once a day continuously for seven days. On the day following the final administration day, bladder functions (urination intervals and single urination output) of the rats of each group were evaluated through cystometry under anesthesia in accordance with a method described in BJU Int. 2007 October; 100(4): 935-9.

[3] = test system: rats in which ulcer had been induced by hydrochloric acid; experiment: Hydrochloric-acid-induced acute gastritis model rat, gastric mucosal damage (lesion length); format: in vivo; settings: control 120.4±8.5 mm
Protocol: TPI (100 or 200 mg/kg) was orally single-administered to rats in which ulcer had been induced by hydrochloric acid (i.e., an acute gastritis model), and the preventive effect of TPI on mucosal damage was evaluated. Specifically, 7-week-old female SD rats (Charles River Laboratories Japan Inc.) were fasted for about 18 hours. To the TPI administration groups, TPI (100 or 200 mg/kg) was orally administered, and after 30 minutes 0.6N HCl (5 mL/kg) was orally administered. To the control group, only 0.6N HCl (5 mL/kg) was orally administered. One hour after administration of hydrochloric acid, rats were euthanized through, and the stomach was removed from each rat. The tissue thereof was fixed with 1% formaline buffer, and the stomach was cut through the greater curvature. The longer diameter (mm) of a lesion was measured by means of an electronic caliper, and the total of the diameters was employed as an index for evaluating gastric mucosal damage.

[4] = test system: concanavalin-A-induced hepatitis model mice; experiment: Concanavalin-A-induced hepatitis model, serum AST and ALT; format: in vivo, mouse; settings: TPI 100 mg/kg oral, 30 min before concanavalin A i.v., 24 h after
Protocol: TPI (100 mg/kg) was orally single-administered to […] in which hepatitis had been induced by concanavalin A (i.e., a hepatitis model), and the inhibitory effect of TPI on hepatitis was evaluated. Specifically, 6-week-old female C57BL/6NCrlCrlj mice (Charles River Laboratories Japan Inc.) were employed. To the TPI administration group, TPI (100 mg/kg) was orally administered, and after 30 minutes 2 mg/mL concanavalin A (150 μL/animal) was intravenously administered through the tail vein. To the control group, only a vehicle was orally administered instead of TPI. […] The serum ALT level (IU/L) and AST level (IU/L) were determined as index for liver disorders.

collagen arthritis mice = experiment: Collagen arthritis model mouse, arthritis score; format: in vivo; settings: 500 mg/kg orally once a day; 11 to 14 days after second immunization
Protocol: TPI (250 or 500 mg/kg) was orally administered to collagen arthritis mice (i.e., rheumatic model) continuously for 14 days, and the effect of TPI on edema of the limbs of each mouse was evaluated. Arthritis was induced in […] mice by type II collagen induction, and the mice were employed as a rheumatoid arthritis model. Specifically, type II collagen derived from bovine joint (K42, product of Collagen Gijyutsu Kensyukai) (200 μg) was suspended in Freund's complete adjuvant (DIFCO) (100 μL), and on day 1, the suspension was intradermally administered to the back of 8-week-old mice (DBA/1JN mice, Charles River Laboratories Japan Inc.). On day 21, type II collagen derived from bovine joint (K42) (200 μg) suspended in Freund's complete adjuvant (100 μL) was intradermally administered to the tail portion of each mice, to thereby induce an arthritis model. To the TPI administration groups, TPI (250 or 500 mg/kg/day) was orally administered continuously once a day during a period from day 21 to day 40. To the control, a solvent (0.5% aqueous HPMC) was administered instead of TPI according to the same administration schedule as employed in the TPI administration groups. […] The arthritis condition was evaluated on day 42; i.e., the day following the final administration day. […]

[5] = test system: rats having hydrochloric-acid-induced cystitis; experiment: Hydrochloric-acid-induced rat interstitial cystitis model, histological changes of the bladder (HE staining); format: in vivo
Protocol: To rats having hydrochloric-acid-induced cystitis serving as an interstitial cystitis model, TPI (50 or 500 mg/kg) was orally administered continuously for seven days, and the effect of TPI on pathological histological improvement of the bladder tissue was evaluated. Specifically, 10-week-old SD rats were divided into groups (n=6) on the basis of body weight. To each of the rats of a control group and TPI administration groups, 0.4N HCl (0.2 mL) was intravesically administered once to the bladder under pentobarbital anesthesia (50 mg/kg, i.p.), to thereby induce a cystitis model. To a Sham group, saline (0.2 mL) was intravesically administered. From the day following the induction of cystitis model, distilled water for injection (5 mL/kg) was administered to the Sham and control groups, while distilled water for injection (5 mL/kg) containing TPI (50 or 500 mg/kg) was administered to the TPI administration groups. In each case, the liquid was orally administered continuously once a day for seven days. On the day following the final administration day, the bladder was removed from each of the rats under ether anesthesia and washed with saline. Subsequently, the washed bladder was fixed with 20% buffered formalin and 10% buffered formalin, followed by HE staining. Histological changes of the bladder were observed. […]

Nc1[nH]c(=O)[nH]c(=O)c1Cl [TUPI, 5-chloro-6-aminouracil, reference compound]
IL-6 level of culture supernatant [1]: more significant suppression

Cl.N=C1CCCN1Cc1[nH]c(=O)[nH]c(=O)c1Cl [TPI, 5-chloro-6-(2-iminopyrrolidin-1-yl)methyl-2,4(1H,3H)-pyrimidinedione hydrochloride]
bladder functions (urination interval, single urination output, effective vesical capacity, residual urine) [2]: improved in response to the administration amount
gastric mucosal damage (total of longer diameters of lesions) ([3]; TPI 100 mg/kg oral single dose 30 min before 0.6N HCl, significantly reduced): 63.0±14.3 mm
gastric mucosal damage (total of longer diameters of lesions) ([3]; TPI 200 mg/kg oral single dose 30 min before 0.6N HCl): 76.1±18.3 mm
serum AST level ([4]; control 4,506±864): 1,540±477 IU/L
serum ALT level ([4]; control 6,130±800): 2,538±755 IU/L
IL-6 level of culture supernatant [1]: more significant suppression
arthritis scores (collagen arthritis mice): significant suppression
Entire bladder: Thickening/proliferation of transitional epithelium, number of samples ([5]; TAS-111 (50), grade +): 1
Lamina propria: Edema, number of samples ([5]; TAS-111 (50), grade +): 0
Lamina propria: Infiltration of mast cells/eosinocytes, number of samples ([5]; TAS-111 (50), grade +): 1
Tunica muscularis: Edema, number of samples ([5]; TAS-111 (50), grade +): 2
Tunica muscularis: Infiltration of mast cells/eosinocytes, number of samples ([5]; TAS-111 (50), grade +): 2
Entire bladder: Thickening/proliferation of transitional epithelium, number of samples ([5]; TAS-111 (50), grade ++): 2
Lamina propria: Edema, number of samples ([5]; TAS-111 (50), grade ++): 2
Lamina propria: Infiltration of mast cells/eosinocytes, number of samples ([5]; TAS-111 (50), grade ++): 2
Tunica muscularis: Edema, number of samples ([5]; TAS-111 (50), grade ++): 0
Tunica muscularis: Infiltration of mast cells/eosinocytes, number of samples ([5]; TAS-111 (50), grade ++): 0
Entire bladder: Thickening/proliferation of transitional epithelium, number of samples ([5]; TAS-111 (50), grade +++): 0
Lamina propria: Edema, number of samples ([5]; TAS-111 (50), grade +++): 0
Lamina propria: Infiltration of mast cells/eosinocytes, number of samples ([5]; TAS-111 (50), grade +++): 0
Tunica muscularis: Edema, number of samples ([5]; TAS-111 (50), grade +++): 0
Tunica muscularis: Infiltration of mast cells/eosinocytes, number of samples ([5]; TAS-111 (50), grade +++): 0
Entire bladder: Thickening/proliferation of transitional epithelium, number of samples ([5]; TAS-111 (500), grade +): 1
Lamina propria: Edema, number of samples ([5]; TAS-111 (500), grade +): 0
Lamina propria: Infiltration of mast cells/eosinocytes, number of samples ([5]; TAS-111 (500), grade +): 2
Tunica muscularis: Edema, number of samples ([5]; TAS-111 (500), grade +): 0
Tunica muscularis: Infiltration of mast cells/eosinocytes, number of samples ([5]; TAS-111 (500), grade +): 0
Entire bladder: Thickening/proliferation of transitional epithelium, number of samples ([5]; TAS-111 (500), grade ++): 0
Lamina propria: Edema, number of samples ([5]; TAS-111 (500), grade ++): 1
Lamina propria: Infiltration of mast cells/eosinocytes, number of samples ([5]; TAS-111 (500), grade ++): 0
Tunica muscularis: Edema, number of samples ([5]; TAS-111 (500), grade ++): 0
Tunica muscularis: Infiltration of mast cells/eosinocytes, number of samples ([5]; TAS-111 (500), grade ++): 0
Entire bladder: Thickening/proliferation of transitional epithelium, number of samples ([5]; TAS-111 (500), grade +++): 0
Lamina propria: Edema, number of samples ([5]; TAS-111 (500), grade +++): 0
Lamina propria: Infiltration of mast cells/eosinocytes, number of samples ([5]; TAS-111 (500), grade +++): 0
Tunica muscularis: Edema, number of samples ([5]; TAS-111 (500), grade +++): 0
Tunica muscularis: Infiltration of mast cells/eosinocytes, number of samples ([5]; TAS-111 (500), grade +++): 0
